Measured values from ChEMBL document CHEMBL1201862, “PubChem BioAssay data set” (2004).
Each block holds one molecule with its values, some of them ahead of it. The source made the active and inactive calls.

Tests used:
Assay type in all cases: functional
Aurora kinase A = Aurora kinase A (Homo sapiens, UniProt O14965);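 note: value from the Navigating the Kinome kinase panel profiling, panel entry STK6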
[1] = molecular target: Dual specificity mitogen-activated protein kinase kinase 1 (Homo sapiens, UniProt Q02750); experiment: Navigating the Kinome. Panel member name: MAP2K1
[2] = molecular target: Tyrosine-protein kinase BTK (Homo sapiens, UniProt Q06187)
Sequence of Tyrosine-protein kinase BTK (Q06187 whole entry): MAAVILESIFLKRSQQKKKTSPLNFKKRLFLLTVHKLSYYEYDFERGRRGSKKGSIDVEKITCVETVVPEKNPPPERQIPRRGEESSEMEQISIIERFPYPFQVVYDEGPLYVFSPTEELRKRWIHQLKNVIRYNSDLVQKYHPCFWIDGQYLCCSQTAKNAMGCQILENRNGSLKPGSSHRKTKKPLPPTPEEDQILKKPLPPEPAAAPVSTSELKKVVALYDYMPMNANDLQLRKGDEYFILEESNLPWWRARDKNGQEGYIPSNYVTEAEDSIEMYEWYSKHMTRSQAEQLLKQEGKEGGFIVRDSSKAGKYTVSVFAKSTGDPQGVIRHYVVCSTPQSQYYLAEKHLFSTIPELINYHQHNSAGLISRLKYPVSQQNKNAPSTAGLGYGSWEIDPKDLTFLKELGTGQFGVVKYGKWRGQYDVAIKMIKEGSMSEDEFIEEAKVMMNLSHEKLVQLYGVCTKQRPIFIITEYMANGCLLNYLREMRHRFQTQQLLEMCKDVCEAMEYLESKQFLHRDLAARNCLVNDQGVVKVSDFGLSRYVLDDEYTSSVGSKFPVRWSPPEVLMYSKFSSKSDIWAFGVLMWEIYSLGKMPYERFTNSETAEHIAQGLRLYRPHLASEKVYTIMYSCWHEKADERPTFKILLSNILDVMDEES

[3] = molecular target: Cyclin-dependent kinase 5 (Homo sapiens, UniProt Q00535);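 note: CDK5 measured as one member of a kinase profiling panel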
Sequence of Cyclin-dependent kinase 5 (Q00535 whole entry): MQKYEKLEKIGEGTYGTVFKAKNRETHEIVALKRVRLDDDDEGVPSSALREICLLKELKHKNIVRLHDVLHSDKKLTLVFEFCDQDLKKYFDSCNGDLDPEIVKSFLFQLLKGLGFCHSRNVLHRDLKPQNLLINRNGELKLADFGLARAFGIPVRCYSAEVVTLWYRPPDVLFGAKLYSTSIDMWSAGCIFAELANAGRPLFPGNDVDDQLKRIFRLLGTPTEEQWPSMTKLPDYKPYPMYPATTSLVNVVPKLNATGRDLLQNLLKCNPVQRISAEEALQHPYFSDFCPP

[4] = molecular target: Mitogen-activated protein kinase kinase kinase kinase 4 (Homo sapiens, UniProt O95819)
Activated CDC42 kinase 1 = Activated CDC42 kinase 1 (Homo sapiens, UniProt Q07912); experiment: Navigating the Kinome. Panel member name: ACK1
[5] = molecular target: cAMP-dependent protein kinase catalytic subunit alpha (Homo sapiens, UniProt P17612)
[6] = molecular target: Platelet-derived growth factor receptor alpha (Homo sapiens, UniProt P16234); experiment: Navigating the Kinome. Panel member name: PDGFRA
[7] = molecular target: Rho-associated protein kinase 1 (Homo sapiens, UniProt Q13464);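 note: measured within a broad kinome-wide panel profiling many kinases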
[8] = molecular target: Receptor-type tyrosine-protein kinase FLT3 (Homo sapiens, UniProt P36888);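 note: FLT3 was tested as one member of a kinome-wide kinase panel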
[9] = molecular target: Dual specificity mitogen-activated protein kinase kinase 2 (Homo sapiens, UniProt P36507); experiment: Navigating the Kinome. Panel member name: MAP2K2
[10] = molecular target: Serine/threonine-protein kinase Nek2 (Homo sapiens, UniProt P51955)
Sequence of Serine/threonine-protein kinase Nek2 (P51955 whole entry): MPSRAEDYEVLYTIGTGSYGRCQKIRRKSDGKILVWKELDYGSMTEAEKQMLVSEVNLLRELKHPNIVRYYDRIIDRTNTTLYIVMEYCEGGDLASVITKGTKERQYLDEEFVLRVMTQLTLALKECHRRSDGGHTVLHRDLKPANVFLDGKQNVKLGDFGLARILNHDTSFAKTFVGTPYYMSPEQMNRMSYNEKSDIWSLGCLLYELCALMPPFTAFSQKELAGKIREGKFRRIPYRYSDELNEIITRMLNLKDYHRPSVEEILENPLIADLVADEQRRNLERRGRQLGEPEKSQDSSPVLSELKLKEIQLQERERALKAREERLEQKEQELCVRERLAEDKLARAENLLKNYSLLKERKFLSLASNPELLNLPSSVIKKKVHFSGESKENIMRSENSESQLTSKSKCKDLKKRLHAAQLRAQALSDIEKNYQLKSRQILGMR

[11] = molecular target: Proto-oncogene tyrosine-protein kinase receptor Ret (Homo sapiens, UniProt P07949);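 note: measured within a kinome-wide profiling panel, RET as the panel member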
[12] = molecular target: Dual specificity tyrosine-phosphorylation-regulated kinase 1B (Homo sapiens, UniProt Q9Y463); experiment: Navigating the Kinome. Panel member name: DYRK1B
[13] = molecular target: Glycogen synthase kinase-3 beta (Homo sapiens, UniProt P49841);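 note: value comes from a broad kinome profiling panel, with GSK3B as the panel member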
[14] = molecular target: Leukocyte tyrosine kinase receptor (Homo sapiens, UniProt P29376); experiment: Navigating the Kinome. Panel member name: LTK
Sequence of Leukocyte tyrosine kinase receptor (P29376 whole entry): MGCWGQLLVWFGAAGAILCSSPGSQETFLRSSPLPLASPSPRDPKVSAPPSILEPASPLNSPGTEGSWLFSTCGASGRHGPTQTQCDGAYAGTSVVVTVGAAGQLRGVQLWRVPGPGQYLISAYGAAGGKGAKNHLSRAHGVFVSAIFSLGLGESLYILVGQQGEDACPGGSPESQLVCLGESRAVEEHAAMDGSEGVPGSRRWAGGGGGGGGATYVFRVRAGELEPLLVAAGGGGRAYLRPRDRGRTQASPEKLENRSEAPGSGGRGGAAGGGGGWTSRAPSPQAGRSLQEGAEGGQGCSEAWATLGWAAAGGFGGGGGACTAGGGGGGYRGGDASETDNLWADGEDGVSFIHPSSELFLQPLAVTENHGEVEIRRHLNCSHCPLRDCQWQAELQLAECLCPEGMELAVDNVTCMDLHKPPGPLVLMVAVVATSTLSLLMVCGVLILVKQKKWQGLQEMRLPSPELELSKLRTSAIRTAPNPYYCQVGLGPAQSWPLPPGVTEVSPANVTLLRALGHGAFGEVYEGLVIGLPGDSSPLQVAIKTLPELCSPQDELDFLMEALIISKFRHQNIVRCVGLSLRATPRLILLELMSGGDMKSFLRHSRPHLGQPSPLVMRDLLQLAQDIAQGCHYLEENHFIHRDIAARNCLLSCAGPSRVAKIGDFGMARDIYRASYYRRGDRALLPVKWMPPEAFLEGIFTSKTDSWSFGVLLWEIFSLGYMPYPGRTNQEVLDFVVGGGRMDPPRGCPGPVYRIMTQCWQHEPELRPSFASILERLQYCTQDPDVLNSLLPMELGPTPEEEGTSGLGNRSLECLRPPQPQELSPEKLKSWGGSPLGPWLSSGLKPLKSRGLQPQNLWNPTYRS

[15] = molecular target: Calcium/calmodulin-dependent protein kinase type II subunit alpha (Homo sapiens, UniProt Q9UQM7); experiment: Navigating the Kinome. Panel member name: CAMK2A
[16] = molecular target: Tyrosine-protein kinase receptor TYRO3 (Homo sapiens, UniProt Q06418);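 note: TYRO3 value obtained as one member of a kinome-wide profiling panel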
[17] = molecular target: Macrophage-stimulating protein receptor (Homo sapiens, UniProt Q04912); experiment: Navigating the Kinome. Panel member name: MST1R
LIM domain kinase 1 = LIM domain kinase 1 (Homo sapiens, UniProt P53667); experiment: Navigating the Kinome. Panel member name: LIMK1
[18] = molecular target: Dual specificity protein kinase CLK2 (Homo sapiens, UniProt P49760)
[19] = molecular target: Tyrosine-protein kinase Lck (Homo sapiens, UniProt P06239);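 note: lck was assayed as one member of a kinase panel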
[20] = molecular target: Death-associated protein kinase 3 (Homo sapiens, UniProt O43293);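 note: measured as one member of a kinome-wide profiling panel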
[21] = molecular target: Cyclin-dependent kinase 8 (Homo sapiens, UniProt P49336); experiment: Navigating the Kinome. Panel member name: CDK8
[22] = molecular target: Platelet-derived growth factor receptor beta (Homo sapiens, UniProt P09619);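 note: value comes from a kinome panel, with PDGFRB tested as one panel member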
[23] = molecular target: Mitogen-activated protein kinase 8 (Homo sapiens, UniProt P45983);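 note: value comes from one member of a kinome-wide kinase profiling panel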
[24] = molecular target: Cyclin-dependent kinase 9 (Homo sapiens, UniProt P50750);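 note: value from the CDK9 entry of a kinome-spanning kinase panel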
[25] = molecular target: Hepatocyte growth factor receptor (Homo sapiens, UniProt P08581);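 note: kinase panel profiling across the kinome, with MET as the panel member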
[26] = molecular target: 5'-AMP-activated protein kinase catalytic subunit alpha-1 (Homo sapiens, UniProt Q13131)
Sequence of 5'-AMP-activated protein kinase catalytic subunit alpha-1 (Q13131 whole entry): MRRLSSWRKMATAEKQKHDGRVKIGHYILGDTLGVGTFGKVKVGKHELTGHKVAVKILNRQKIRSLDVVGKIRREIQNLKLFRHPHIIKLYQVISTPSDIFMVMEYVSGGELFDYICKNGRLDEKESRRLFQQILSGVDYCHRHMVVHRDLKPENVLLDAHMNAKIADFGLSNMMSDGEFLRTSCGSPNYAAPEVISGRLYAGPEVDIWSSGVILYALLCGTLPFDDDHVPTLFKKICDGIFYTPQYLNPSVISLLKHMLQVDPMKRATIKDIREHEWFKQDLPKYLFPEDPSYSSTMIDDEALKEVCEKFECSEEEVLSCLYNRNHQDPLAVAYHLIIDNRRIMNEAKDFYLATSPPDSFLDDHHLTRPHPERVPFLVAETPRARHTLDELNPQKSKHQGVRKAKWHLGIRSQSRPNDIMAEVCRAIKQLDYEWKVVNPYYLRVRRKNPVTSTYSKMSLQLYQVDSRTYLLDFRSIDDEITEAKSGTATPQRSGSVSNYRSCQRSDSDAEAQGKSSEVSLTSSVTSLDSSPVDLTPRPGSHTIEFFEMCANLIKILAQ

[27] = molecular target: BDNF/NT-3 growth factors receptor (Homo sapiens, UniProt Q16620);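 note: NTRK2 measured as one member of a broad kinome-wide kinase profiling panel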
[28] = molecular target: Ribosomal protein S6 kinase alpha-3 (Homo sapiens, UniProt P51812);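 note: measured within a kinome-wide profiling panel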
[29] = molecular target: High affinity nerve growth factor receptor (Homo sapiens, UniProt P04629);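 note: NTRK1 tested as one member of a kinome-wide profiling panel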
[30] = molecular target: cAMP-dependent protein kinase catalytic subunit PRKX (Homo sapiens, UniProt P51817)
Sequence of cAMP-dependent protein kinase catalytic subunit PRKX (P51817 whole entry): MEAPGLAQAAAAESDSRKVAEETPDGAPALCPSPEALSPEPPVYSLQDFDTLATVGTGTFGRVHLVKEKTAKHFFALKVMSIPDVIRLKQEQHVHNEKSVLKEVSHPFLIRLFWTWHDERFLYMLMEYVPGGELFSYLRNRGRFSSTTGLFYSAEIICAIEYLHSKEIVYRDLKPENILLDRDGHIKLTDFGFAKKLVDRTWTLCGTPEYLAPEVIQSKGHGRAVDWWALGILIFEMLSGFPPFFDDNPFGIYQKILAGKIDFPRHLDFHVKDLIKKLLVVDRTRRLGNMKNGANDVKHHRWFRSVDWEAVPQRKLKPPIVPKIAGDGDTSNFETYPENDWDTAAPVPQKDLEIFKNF

[31] = molecular target: Cyclin-dependent kinase 7 (Homo sapiens, UniProt P50613);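 note: value comes from a kinome-wide kinase profiling panel in which CDK7 is one member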
[32] = molecular target: Tyrosine-protein kinase JAK3 (Homo sapiens, UniProt P52333)
[33] = molecular target: Serine/threonine-protein kinase TBK1 (Homo sapiens, UniProt Q9UHD2); experiment: Navigating the Kinome. Panel member name: TBK1
Focal adhesion kinase 1 = Focal adhesion kinase 1 (Homo sapiens, UniProt Q05397);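 note: measured as one member of a kinome panel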
[34] = molecular target: Serine/threonine-protein kinase D3 (Homo sapiens, UniProt O94806);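 note: determined within a kinase panel screen, with PRKCN as the panel member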
[35] = molecular target: Vascular endothelial growth factor receptor 1 (Homo sapiens, UniProt P17948);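 note: measured within a kinome-wide profiling panel, FLT1 as the panel member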
[36] = molecular target: Serine/threonine-protein kinase pim-1 (Homo sapiens, UniProt P11309)
Aurora kinase B = Aurora kinase B (Homo sapiens, UniProt Q96GD4)
[37] = molecular target: Glycogen synthase kinase-3 alpha (Homo sapiens, UniProt P49840);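 note: GSK3A result taken from a broad kinome-wide kinase panel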
[38] = molecular target: Leucine-rich repeat serine/threonine-protein kinase 2 (Homo sapiens, UniProt Q5S007);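 note: value from a broad kinome-wide panel profiling study in which LRRK2 was one of the kinases tested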
[39] = molecular target: Mitogen-activated protein kinase 9 (Homo sapiens, UniProt P45984);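 note: value from a kinome panel profiling assay, MAPK9 panel entry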
[40] = molecular target: Tyrosine-protein kinase Fyn (Homo sapiens, UniProt P06241)
[41] = molecular target: Serine/threonine-protein kinase PAK 4 (Homo sapiens, UniProt O96013);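 note: value obtained within a kinome profiling panel in which PAK4 was one of the panel members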
[42] = molecular target: Serine/threonine-protein kinase TAO1 (Homo sapiens, UniProt Q7L7X3)
Sequence of Serine/threonine-protein kinase TAO1 (Q7L7X3 whole entry): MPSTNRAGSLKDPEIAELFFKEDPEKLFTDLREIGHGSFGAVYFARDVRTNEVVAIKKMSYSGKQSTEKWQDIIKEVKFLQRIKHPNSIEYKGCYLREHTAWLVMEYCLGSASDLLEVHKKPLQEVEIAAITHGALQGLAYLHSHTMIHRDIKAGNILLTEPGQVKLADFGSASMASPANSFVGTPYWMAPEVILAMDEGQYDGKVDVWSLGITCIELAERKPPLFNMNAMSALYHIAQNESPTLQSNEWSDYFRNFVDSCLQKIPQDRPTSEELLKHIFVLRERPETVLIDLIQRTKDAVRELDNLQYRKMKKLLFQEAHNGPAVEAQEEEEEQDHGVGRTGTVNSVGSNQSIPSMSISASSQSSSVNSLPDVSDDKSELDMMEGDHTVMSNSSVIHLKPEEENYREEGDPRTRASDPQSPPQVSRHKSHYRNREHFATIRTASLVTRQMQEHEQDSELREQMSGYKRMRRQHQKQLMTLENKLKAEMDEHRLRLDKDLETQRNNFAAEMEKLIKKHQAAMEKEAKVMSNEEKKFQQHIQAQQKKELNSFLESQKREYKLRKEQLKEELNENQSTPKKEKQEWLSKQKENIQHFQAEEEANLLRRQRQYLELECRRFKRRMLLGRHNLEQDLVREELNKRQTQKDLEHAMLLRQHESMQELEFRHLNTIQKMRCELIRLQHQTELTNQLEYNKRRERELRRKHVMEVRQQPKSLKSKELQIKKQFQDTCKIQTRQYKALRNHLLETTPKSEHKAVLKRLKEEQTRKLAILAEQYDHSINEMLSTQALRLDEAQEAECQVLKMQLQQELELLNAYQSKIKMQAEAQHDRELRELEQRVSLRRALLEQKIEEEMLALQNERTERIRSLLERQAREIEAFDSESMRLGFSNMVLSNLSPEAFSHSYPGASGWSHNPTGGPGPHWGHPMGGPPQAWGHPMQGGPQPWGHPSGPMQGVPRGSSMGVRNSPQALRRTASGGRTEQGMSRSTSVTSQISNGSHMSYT

[43] = molecular target: Inhibitor of nuclear factor kappa-B kinase subunit epsilon (Homo sapiens, UniProt Q14164); experiment: Navigating the Kinome. Panel member name: IKBKE
[44] = molecular target: Mitogen-activated protein kinase 14 (Homo sapiens, UniProt Q16539);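 note: part of a kinome-wide panel, MAPK14 entry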
[45] = molecular target: Dual specificity tyrosine-phosphorylation-regulated kinase 1A (Homo sapiens, UniProt Q13627);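 note: measured against DYRK1A as one member of a broad kinome profiling panel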
[46] = molecular target: Dual specificity protein kinase CLK4 (Homo sapiens, UniProt Q9HAZ1)
Sequence of Dual specificity protein kinase CLK4 (Q9HAZ1 whole entry): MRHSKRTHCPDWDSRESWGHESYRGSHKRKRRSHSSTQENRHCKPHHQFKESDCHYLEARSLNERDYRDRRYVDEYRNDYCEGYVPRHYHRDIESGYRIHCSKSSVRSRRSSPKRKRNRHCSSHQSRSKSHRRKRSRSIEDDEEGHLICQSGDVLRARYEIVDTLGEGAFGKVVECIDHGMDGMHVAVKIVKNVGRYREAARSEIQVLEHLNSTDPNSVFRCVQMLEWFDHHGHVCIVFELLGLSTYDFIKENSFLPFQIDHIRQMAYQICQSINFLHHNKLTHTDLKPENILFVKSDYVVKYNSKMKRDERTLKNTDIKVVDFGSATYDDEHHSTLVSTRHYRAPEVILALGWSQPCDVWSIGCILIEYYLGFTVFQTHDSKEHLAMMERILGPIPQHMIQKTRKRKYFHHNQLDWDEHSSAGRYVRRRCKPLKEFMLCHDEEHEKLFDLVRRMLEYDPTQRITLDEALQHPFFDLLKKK

[47] = molecular target: Melanin-concentrating hormone receptor 1 (Homo sapiens, UniProt Q99705); experiment: Late-stage fluorescence-based counterscreen for antagonists of the G-protein coupled receptor 7 (GPR7): cell-based dose response assay to identify antagonists of the melanin-concentrating hormone receptor 1 (MCHR1) Set 5.
Sequence of Melanin-concentrating hormone receptor 1 (Q99705 whole entry): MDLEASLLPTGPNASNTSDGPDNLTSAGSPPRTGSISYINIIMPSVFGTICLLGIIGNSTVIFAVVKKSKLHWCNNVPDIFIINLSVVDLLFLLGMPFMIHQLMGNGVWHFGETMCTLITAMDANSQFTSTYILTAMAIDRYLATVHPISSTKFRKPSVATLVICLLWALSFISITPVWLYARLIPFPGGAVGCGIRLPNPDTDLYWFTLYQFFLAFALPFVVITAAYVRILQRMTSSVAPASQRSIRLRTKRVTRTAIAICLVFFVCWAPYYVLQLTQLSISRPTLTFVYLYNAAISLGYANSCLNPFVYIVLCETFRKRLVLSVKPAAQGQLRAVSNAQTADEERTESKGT

[48] = molecular target: T1, Neuropeptides B/W receptor type 1 (Homo sapiens, UniProt P48145); experiment: GPR7 antagonist potency, late-stage follow-up, cell-based, fluorescence, dose response, set 5 (AID 588566)
T1 sequence (P48145 whole entry): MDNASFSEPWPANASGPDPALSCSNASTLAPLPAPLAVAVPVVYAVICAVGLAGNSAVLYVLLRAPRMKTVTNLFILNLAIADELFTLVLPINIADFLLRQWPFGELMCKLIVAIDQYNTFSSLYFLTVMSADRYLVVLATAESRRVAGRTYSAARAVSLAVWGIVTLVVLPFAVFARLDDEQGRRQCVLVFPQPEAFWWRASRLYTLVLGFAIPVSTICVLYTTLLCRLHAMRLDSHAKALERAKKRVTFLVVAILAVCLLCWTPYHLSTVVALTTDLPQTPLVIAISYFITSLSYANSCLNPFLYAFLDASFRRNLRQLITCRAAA

Ki (Aurora kinase A): > 1580 nM (inactive)
Ki [1]: > 3160 nM (inactive)
Ki [2]: > 6310 nM (inactive)
Ki [3]: 6.31 nM (active)
Ki [4]: 5010 nM (active)
Ki (Activated CDC42 kinase 1): > 3980 nM (inactive)
Ki [5]: > 1260 nM (inactive)
Ki [6]: 2000 nM (active)
Ki [7]: > 3980 nM (inactive)
Ki [8]: > 3160 nM (inactive)
Ki [9]: > 3980 nM (inactive)
Ki [10]: > 3160 nM (inactive)
Ki [11]: 1580 nM (active)
Ki [12]: 631 nM (active)
Ki [13]: 1000 nM (active)
Ki [14]: 2000 nM (active)
Ki [15]: > 3980 nM (inactive)
Ki [16]: 2000 nM (active)
Ki [17]: 1580 nM (active)
Ki (LIM domain kinase 1): 126 nM (active)
Ki [18]: 2000 nM (active)
Ki [19]: > 6310 nM (inactive)
Ki [21]: 316 nM (active)
Ki [22]: > 2000 nM (inactive)
Ki [23]: 3980 nM (active)
Ki [24]: 200 nM (active)
Ki [25]: 1000 nM (active)
Ki [26]: 2000 nM (active)
Ki [27]: > 3980 nM (inactive)
Ki [28]: > 3980 nM (inactive)
Ki [29]: 1580 nM (active)
Ki [30]: > 3160 nM (inactive)
Ki [31]: 3980 nM (active)
Ki [32]: > 5010 nM (inactive)
Ki [33]: > 3160 nM (inactive)
Ki (Focal adhesion kinase 1): > 6310 nM (inactive)
Ki [34]: 794 nM (active)
Ki [35]: > 3980 nM (inactive)
Ki [36]: 1000 nM (active)
Ki (Aurora kinase B): > 3980 nM (inactive)
Ki [37]: 1580 nM (active)
Ki [38]: 1580 nM (active)
Ki [39]: > 3980 nM (inactive)
Ki [40]: > 6310 nM (inactive)
Ki [41]: > 5010 nM (inactive)
Ki [42]: > 6310 nM (inactive)
Ki [43]: > 3160 nM (inactive)
Ki [44]: > 3980 nM (inactive)
Ki [45]: 1260 nM (active)
Ki [46]: 126 nM (active)
SMILES: O=C(Nc1cnccn1)Nc1cccc2c(O)cccc12
Ki [20]: 316 nM (active)

IC50 [47]: 1130 nM (active)
IC50 [48]: 360 nM (active)
SMILES: COc1ccc(C(C#N)c2c(Cl)cnn(Cc3cccc4ccccc34)c2=O)cc1 (stereo not drawn)
